In US20240382508A1, “REGENERATIVE AGENT FOR BONE TISSUE AND LUNG TISSUE, AND PHARMACEUTICAL COMPOSITION FOR REGENERATING BONE TISSUE AND LUNG TISSUE” (NIIGATA UNIVERSITY, priority 2021, published 2024):

Tests used:
osteoblasts = assay: bone nodule measurement in osteoblasts (Alizarin red S); assay type: cell-based, mouse; conditions: for formation of bone nodules (FIG. 1): erythromycin 10 μg/mL
Method: Next, from the cranial bones of 3-day-old wild-type mice (N=6, male C57BL/6N mice, manufactured by CLEA Japan, Inc.) and 3-day-old DEL-1-deficient mice (N=6, male C57BL/6N mice (manufactured by CLEA Japan, Inc.), a method for producing the deficient mice was as described in Non Patent Document 1), osteoblasts were isolated by allowing 0.1% by mass of type 1 collagenase and 0.2% by mass of dispase to act at 37° C. for 20 minutes, and the cells were cultured in α-MEM and a bone differentiation medium (containing 50 μg/ml ascorbic acid and 10 mM β-glycerol 2-phosphate). Ethanol (final concentration 0.1% by mass) and erythromycin (10 μg/mL) were added into the medium in which the osteoblasts (1×10^4 cells/mL) derived from the wild-type mice or the DEL-1-deficient mice were cultured. The medium was exchanged every 3 days, and after 15 days, the cells were stained with Alizarin red S, followed by performing of bone nodule measurement.
Next, the proportion (%) of bone nodules with respect to the observation region in the above-described osteoblasts was calculated from microscopic images by using image processing software (NIH Image). In addition, RNA was extracted from each of the osteoblasts by using an RNeasy Kit (manufactured by QIAGEN NV), subsequently cDNA was synthesized by using a cDNA synthesis kit (manufactured by Thermo Fisher Scientific, Inc.), and the relative expression levels of RUNX2 mRNA, Sp7 mRNA, and Bglap mRNA, which are important for bone regeneration, were checked by an RT-PCR method (Quantstudio3, Thermo Fisher Scientific, Inc.). Regarding primers, designed primers manufactured by Thermo Fisher Scientific, Inc. were used. The Assay IDs of the primers used are shown below.
(Bone regeneration-inducing effect 2 by various macrolide antimicrobial agents) From the cranial bones of 3-day-old wild-type mice (N=6, male C57BL/6N mice, manufactured by CLEA Japan, Inc.), osteoblasts were isolated by allowing 0.1% by mass of type 1 collagenase and 0.2% by mass of dispase to act at 37° C. for 20 minutes, and the cells were cultured in α-MEM and a bone differentiation medium (containing 50 μg/ml ascorbic acid and 10 mM β-glycerol 2-phosphate). Ethanol (final concentration 0.1% by mass), or erythromycin, clarithromycin, or azithromycin (10 μg/mL each) was added into the medium in which the osteoblasts (1×10^4 cells/mL) derived from the wild-type mice were cultured. The medium was exchanged every 3 days, and after 15 days, the cells were stained with Alizarin red S, followed by performing of bone nodule measurement. The results are shown in FIG. 11 In FIG. 11, the symbol * indicates p<0.05, and the symbol ** indicates p<0.01. In addition, the control is an ethanol (final concentration 0.1% by mass)-added group.

acute lung disorder mice = assay: LPS-induced acute lung disorder, HE staining of lung tissue; assay type: in vivo, mouse; conditions: 10 mg/kg intraperitoneally once a day for two weeks
Method: Acute lung disorder was induced by administering lipopolysaccharide (LPS) to the tracheae and bronchi of mice (the details of a production method were as described in Non Patent Document 1). Erythromycin (10 mg/kg) was administered to 6-week-old wild-type mice (N=4, male C57BL/6N mice, manufactured by CLEA Japan, Inc.) and 6-week-old DEL-1-deficient mice (N=4, male C57BL/6N mice (manufactured by CLEA Japan, Inc.), a method for producing the deficient mice was as described in Non-Patent Document 1), by intraperitoneal administration once a day for a total of two weeks. After the administration, the lungs were extracted from each mouse and fixed, and then slice preparations were produced. Next, hematoxylin and eosin (HE) staining was performed. Observation images (magnifications: 10 times and 200 times) obtained with a microscope (manufactured by Nikon Corporation, ECLIPSE Ni-E) are shown in FIG. 7A to 7C.

[1] = tested on: α-SMA-positive mesenchymal stem cells; assay: immunofluorescence staining of periodontal tissue of experimental periodontitis mice; assay type: in vivo, mouse; conditions: wild-type mice; jawbone slices
Method: Next, jawbones of the wild-type mice to which erythromycin had or had not been administered were extracted and fixed, and then slice preparations were produced. Next, immunofluorescence staining was performed by using an anti-α-SMA antibody (manufactured by Abcam, Ltd.) fluorescently labeled with Alexa Fluor (registered trademark) 488 (manufactured by Thermo Fisher Scientific, Inc.), an anti-CD31/PECAM-1 antibody (manufactured by Thermo Fisher Scientific, Inc.) fluorescently labeled with Alexa Fluor (registered trademark) 647 (manufactured by Thermo Fisher Scientific, Inc.), and an anti-Ki67 antibody (manufactured by R&D Systems, Inc.) fluorescently labeled with Alexa Fluor (registered trademark) 594 (manufactured by Thermo Fisher Scientific, Inc.). Observation images (magnification: 200 times) obtained with a fluorescence microscope (ECLIPSE Ni-E, manufactured by Nikon Corporation) are shown in FIG. 5.

CC[C@H]1OC(=O)[C@H](C)[C@@H](O[C@H]2C[C@@](C)(OC)[C@@H](O)[C@H](C)O2)[C@H](C)[C@@H](O[C@@H]2O[C@H](C)C[C@H](N(C)C)[C@H]2O)[C@](C)(O)C[C@@H](C)C(=O)[C@H](C)[C@@H](O)[C@]1(C)O [erythromycin]
proportion of bone nodules (FIG. 2) (osteoblasts; osteoblasts derived from DEL-1-deficient mice): an increase in the proportion of bone nodules was not recognized | formation of bone nodules (FIG. 1) (osteoblasts; osteoblasts derived from DEL-1-deficient mice, 15 days): the formation of bone nodules was not recognized | proportion of bone nodules (FIG. 2) (osteoblasts; osteoblasts derived from wild-type mice): significant increases in the proportion of bone nodules was recognized | formation of bone nodules (FIG. 11) (osteoblasts; osteoblasts derived from wild-type mice, 10 μg/mL each, 15 days): the formation of bone nodules was recognized | formation of bone nodules (FIG. 1) (osteoblasts; osteoblasts derived from wild-type mice, 15 days): the formation of bone nodules was recognized | tissue repair and restructuring of the alveolar structure (FIG. 7C) (acute lung disorder mice; DEL-1-deficient mouse): normal tissue repair and restructuring of the alveolar structure were not recognized | tissue repair and restructuring of the alveolar structure (FIG. 7B) (acute lung disorder mice; wild-type mouse): normal tissue repair and restructuring of the alveolar structure were recognized | proportion of α-SMA-positive mesenchymal stem cells (FIG. 5) [1]: the proportion of α-SMA-positive mesenchymal stem cells was increased
